Measured values taken from ChEMBL document CHEMBL1201862, “PubChem BioAssay data set” (2004).
“And” between values parts separate entries of the source, which are not always exact repeats. Identical values can stand only once. The source made the active and inactive calls.

What was measured:
[1] = molecular target: T1, Heat shock 70 kDa protein 1A (Homo sapiens, UniProt P0DMV8); experiment: Hsp70 inhibitors, biochemical, TR-FRET (AID 786)
[2] = Luminescence Cell-Based Dose Retest to Confirm Inhibitors of Cancer Stem Cells. [Related pubchem assays (depositor defined):AID2717, AID2721]; type: functional; conditions: Homo sapiens
[3] = molecular target: T1, Heat shock 70 kDa protein 1A; experiment: Hsp70 inhibitors, probe displacement, primary screen, biochemical, fluorescence polarization (AID 583)
[4] = molecular target: Serine/threonine-protein phosphatase (Homo sapiens, UniProt Q9BPW0); experiment: Counterscreen for inhibitors of PP1: fluorescence-based biochemical high throughput dose response assay to identify inhibitors of Protein Phosphatase 5 (PP5). [Related pubchem assays: 2034 (Summary (PP5 inhibitors)), 1987 (PP5 inhibitors in singlate), 2235 (PP1 inhibitors in singlate)]
[5] = molecular target: Serine/threonine-protein phosphatase PP1-alpha catalytic subunit (Homo sapiens, UniProt P62136); experiment: PP1 phosphatase inhibitors, dose response, biochemical, fluorescence (AID 2403);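 note: phosphatase turnover of OMFP into fluorescent 3-O-methylfluorescein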
Serine/threonine-protein phosphatase PP1-alpha catalytic subunit, sequence (P62136 whole entry): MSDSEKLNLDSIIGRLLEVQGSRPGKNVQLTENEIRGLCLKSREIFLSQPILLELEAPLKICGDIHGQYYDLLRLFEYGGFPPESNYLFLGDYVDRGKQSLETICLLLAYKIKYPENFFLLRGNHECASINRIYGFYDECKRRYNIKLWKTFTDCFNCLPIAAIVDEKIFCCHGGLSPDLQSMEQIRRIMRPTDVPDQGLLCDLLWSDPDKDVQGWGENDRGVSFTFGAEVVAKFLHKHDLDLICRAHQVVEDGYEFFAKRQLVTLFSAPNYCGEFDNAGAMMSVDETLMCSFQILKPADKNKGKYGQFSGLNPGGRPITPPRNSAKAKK

[6] = molecular target: Bcl-2-like protein 10 (Homo sapiens, UniProt Q9HD36); experiment: Biochemical TR3 FP assay of Bcl-B inhibitor potency, EC50 (AID 1243); type: functional
[7] = molecular target: T2, Neuropeptide Y receptor type 2 (Homo sapiens, UniProt P49146); type: functional, cell-based;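 for IC50: HEK293 cells expressing the receptor and a CNG channel; stimulus was NPY near EC95 followed by isoproterenol to raise cAMP; antagonist potency measured as restoring cAMP signal that NPY suppresses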
T2 sequence (P49146 whole entry): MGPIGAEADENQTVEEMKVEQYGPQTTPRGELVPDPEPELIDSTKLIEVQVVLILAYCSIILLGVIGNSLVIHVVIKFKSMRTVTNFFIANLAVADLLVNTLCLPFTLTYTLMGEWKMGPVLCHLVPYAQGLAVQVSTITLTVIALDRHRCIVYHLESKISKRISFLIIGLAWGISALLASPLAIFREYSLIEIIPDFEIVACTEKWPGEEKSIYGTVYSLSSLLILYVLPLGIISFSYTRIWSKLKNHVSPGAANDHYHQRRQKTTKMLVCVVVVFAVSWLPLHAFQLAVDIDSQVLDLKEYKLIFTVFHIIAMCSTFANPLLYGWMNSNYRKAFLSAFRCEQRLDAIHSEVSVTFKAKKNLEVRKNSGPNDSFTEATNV

[8] = Luminescence Cell-Based Dose Response HTS to Identify Inhibitors of 5'UTR Stem-Loop Driven Prion Protein mRNA Translation in H4 Neuroglioblastoma Cells. [Related pubchem assays: 1827 (Project Summary), 1813 (Primary HTS)]; type: functional
[9] = inhibitors of intracellular T. cruzi replication, confirmation, NIH3T3 host cells, beta-gal luminescence (AID 2044); type: functional, cell-based;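 note: intracellular parasites grown in NIH/3T3 mouse fibroblasts as host cells; luminescent beta-galactosidase reporter signal from transgenic T. cruzi replicating inside host cells; inhibitors lower the luminescence signal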
[10] = molecular target: T3, Neuropeptide Y receptor type 1 (Homo sapiens, UniProt P25929); type: functional;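 for IC50: HEK293 cells with a CNG channel challenged with NPY then isoproterenol; potency as antagonist that reverses NPY suppression of cAMP signal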
T3 sequence (P25929 whole entry): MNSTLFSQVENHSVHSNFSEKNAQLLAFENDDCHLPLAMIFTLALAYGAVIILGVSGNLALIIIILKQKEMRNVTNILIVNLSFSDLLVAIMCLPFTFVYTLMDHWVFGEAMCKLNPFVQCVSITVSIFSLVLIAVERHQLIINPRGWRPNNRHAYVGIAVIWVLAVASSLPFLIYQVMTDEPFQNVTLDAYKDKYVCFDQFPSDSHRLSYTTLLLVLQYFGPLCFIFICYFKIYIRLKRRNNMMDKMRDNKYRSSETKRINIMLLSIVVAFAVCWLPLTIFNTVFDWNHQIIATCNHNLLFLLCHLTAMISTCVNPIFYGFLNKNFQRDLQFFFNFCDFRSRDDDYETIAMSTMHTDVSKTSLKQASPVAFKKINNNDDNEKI

[11] = inhibitors of SNCA 5'UTR-driven reporter translation, confirmation, H4 neuroglioma cells, luminescence (AID 1988); type: functional, cell-based
[12] = cytotoxicity toward NIH3T3 fibroblasts, dose response, counter-screen, cell-based, ATP luminescence, mouse fibroblasts (AID 2010); type: functional;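 note: cells exposed to compound for about 90 hours before reading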
[13] = inhibitors of firefly luciferase expression or activity, dose response, H4 neuroglioma cells, luminescence (AID 1990); type: functional, cell-based
[14] = tested on: BJ; experiment: cytotoxicity toward BJ-TERT-LT-ST fibroblasts, dose response, cell-based, RAS-independent, luminescence (AID 1935); type: functional; conditions: Homo sapiens;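 note: BJ fibroblasts immortalized with TERT plus LT and ST oncogenes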
[15] = cells; type: functional, cell-based
[16] = HEp-2 cell cytotoxicity, dose response, cytotoxicity control for RSV inhibitor project, HTS (AID 2410); type: functional; conditions: human respiratory syncytial virus
[17] = luciferase reporter signal reduction – luminescence, H4-C neuroglioblastoma cells, dose response (AID 2458); type: functional, cell-based;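 note: H4 neuroglioblastoma cells stably carrying a luciferase reporter gene fusion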
[18] = tested on: BJ; experiment: cytotoxicity toward BJ-TERT fibroblasts, dose response, cell-based, RAS-independent, luminescence (AID 1933); type: functional; conditions: Homo sapiens
[19] = cytotoxicity toward DRD oncogenic fibroblasts, dose response, cell-based, non-viral oncogenic, luminescence (AID 1934); type: functional; conditions: Homo sapiens
[20] = inhibitors of SNCA 5'UTR-driven translation, confirmation, luminescence, H4 neuroglioblastoma cells, dose confirmation (AID 2454); type: functional, cell-based;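 note: H4 neuroglioblastoma cells carrying an alpha-synuclein 5'UTR luciferase reporter; potency for inhibition of the luciferase signal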
[21] = cytotoxicity in HEK-293T cells, dose response, cytotoxicity control for TCR NF-kB inhibitor project, luminescence, T-cell screen hits (AID 489026); type: functional, cell-based;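 note: cells exposed to compound about 14 hours before the viability readout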
[22] = tested on: BJ; experiment: cells; type: functional, cell-based; conditions: Homo sapiens
[23] = molecular target: Luciferin 4-monooxygenase (Photinus pyralis, UniProt P08659); experiment: Counter Screen for Luciferase-based Assay Positives. [Related pubchem assays: 620, 618, 411 ]
[24] = tested on: HT-1080; experiment: cytotoxicity in HT1080 fibrosarcoma cells, cell-based, fluorescence readout (AID 620); type: functional; conditions: Homo sapiens
[25] = Shn3 3'UTR reporter inhibitors, dose response, cell-based, Clone20 osteoblasts, firefly luciferase, cherry-picked (AID 624132); type: functional;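 note: firefly luciferase luminescence from reporter carrying the Shn3 3'UTR in osteoblasts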
[26] = molecular target: E3 ubiquitin-protein ligase Mdm2 (Homo sapiens, UniProt Q00987); experiment: enhancers of MDM2-luciferase reporter signal, concentration-effect titration, project on inhibitors of MDM2 ubiquitin ligase, cellular assay, luminescent readout, 384-well plate format (AID 1394); type: functional;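 note: MDM2 E3 inhibitors raise luminescence so EC50 is for signal enhancement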
[27] = molecular target: T2, Neuropeptide Y receptor type 2; experiment: Fluorescence-based cell-based high-throughput dose response assay for agonists of NPY-Y2. [Related pubchem assays: 1703 (Screening assay (CNGC inhibitors).), 1359 (Screening assay (NPY-Y2 potentiators or agonists).), 1304 (Screening assay (NPY-Y1 potentiators or agonists).), 1710 (Screening assay (NPY-Y2 agonists).), 1791 (Summary AID.)]; type: functional
[28] = molecular target: T3, Neuropeptide Y receptor type 1; experiment: NPY-Y1 receptor antagonist potency, dose response, cell-based (AID 1277); type: functional
[29] = tested on: HEK293; experiment: cells; conditions: Homo sapiens
[30] = molecular target: T4, Heat shock factor protein 1 (Mus musculus, UniProt P38532); experiment: HSF1 potentiators in luciferase reporter cells, confirmation, cell-based, NIH3T3, luminescence, dose retest (AID 435004); type: functional;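 note: stress induced by proteasome inhibitor MG132 added 30 min after compound; luciferase reporter driven by HSF1 response element in NIH3T3 cells; actives raise luminescence as potentiators of the MG132 stress response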
T4 sequence (P38532 whole entry): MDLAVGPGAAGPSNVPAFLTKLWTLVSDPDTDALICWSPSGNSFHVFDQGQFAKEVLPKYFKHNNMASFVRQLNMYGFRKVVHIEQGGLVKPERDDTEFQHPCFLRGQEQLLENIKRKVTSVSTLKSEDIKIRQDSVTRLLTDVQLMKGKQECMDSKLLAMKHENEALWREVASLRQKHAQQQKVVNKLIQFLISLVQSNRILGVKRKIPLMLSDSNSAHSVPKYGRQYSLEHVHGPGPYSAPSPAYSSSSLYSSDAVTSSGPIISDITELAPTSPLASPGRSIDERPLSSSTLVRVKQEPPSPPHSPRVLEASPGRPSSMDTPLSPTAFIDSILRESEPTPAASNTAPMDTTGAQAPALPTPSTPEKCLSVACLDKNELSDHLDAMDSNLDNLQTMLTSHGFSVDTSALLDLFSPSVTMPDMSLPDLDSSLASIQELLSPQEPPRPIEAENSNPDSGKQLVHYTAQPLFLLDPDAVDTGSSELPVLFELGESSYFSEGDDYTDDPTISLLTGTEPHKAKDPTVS

[31] = tested on: HEK293; experiment: cells; conditions: Homo sapiens; remark: listed apart in the source
[32] = molecular target: T3, Neuropeptide Y receptor type 1; experiment: Fluorescence-based counterscreen for agonists of NPY-Y2: cell-based high-throughput dose response assay for agonists of NPY-Y1.; type: functional
[33] = HepG2 cell cytotoxicity, dose response, cytotoxicity control for Shn3 inhibitor project, CellTiter-Glo, cherry-picked (AID 624134); type: functional, cell-based
[34] = control 3'UTR Renilla luciferase suppression, dose response, counter-screen for Shn3 inhibitor project, cell-based, Clone20-Shn3RL, cherry-picked (AID 624133); type: functional
[35] = tested on: HEK293; experiment: Fluorescence-based counterscreen for potentiators or agonists of NPY-Y2: cell-based high-throughput dose response assay to identify inhibitors of cyclic nucleotide gated ion channel (CNGC) activity. In this assay, the parental HEK293 cell line transfected with a cyclic-nucleotide gated ion channel (CNGC)-based cAMP sensor is used to measure inhibition of isoproterenol-induced CNGC activity by test compound.; type: functional; conditions: Homo sapiens
[36] = molecular target: T2, Neuropeptide Y receptor type 2; experiment: NPY-Y2 antagonist potency, selectivity check, dose response, counter-screen for NPY-Y1 antagonist project, cell-based (AID 1278); type: functional
[37] = Luminescence-based counterscreen assay for KLF5 inhibitors: dose response cell-based high throughput screening assay to identify cytotoxic compounds using the IEC-6 intestinal epithelial cell line. [Related pubchem assays: 1700 (Primary screen.), 1834 (Confirmation screen.), 1858 (Summary AID.), 1905 (Counterscreen.)]; type: functional
[38] = molecular target: G2/mitotic-specific cyclin-B1 (Homo sapiens, UniProt P14635); experiment: Counterscreen assay for inhibitors of Wee1 degradation: dose response cell-based assay to identify inhibitors of cyclin B degradation. [Related pubchem assays: 1410, 1321 ]; type: functional
G2/mitotic-specific cyclin-B1, sequence (P14635 whole entry): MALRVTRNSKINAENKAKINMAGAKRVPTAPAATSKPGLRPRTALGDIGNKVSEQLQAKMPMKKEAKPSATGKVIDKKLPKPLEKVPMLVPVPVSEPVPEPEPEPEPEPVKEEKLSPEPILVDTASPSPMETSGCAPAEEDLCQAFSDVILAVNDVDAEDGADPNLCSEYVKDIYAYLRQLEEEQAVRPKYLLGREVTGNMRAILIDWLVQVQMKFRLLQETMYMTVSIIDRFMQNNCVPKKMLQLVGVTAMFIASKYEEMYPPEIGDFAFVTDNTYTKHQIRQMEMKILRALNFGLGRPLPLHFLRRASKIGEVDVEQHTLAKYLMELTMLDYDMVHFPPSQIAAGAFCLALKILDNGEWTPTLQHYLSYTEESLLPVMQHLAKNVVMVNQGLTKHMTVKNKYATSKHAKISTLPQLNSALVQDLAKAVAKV

[39] = molecular target: T5, Voltage-gated N-type calcium channel alpha-1B subunit/Amyloid beta A4 precursor protein-binding family A member 1 (Homo sapiens, UniProt Q00975+Q02410); type: protein assay
T5 sequence (Q00975 whole entry): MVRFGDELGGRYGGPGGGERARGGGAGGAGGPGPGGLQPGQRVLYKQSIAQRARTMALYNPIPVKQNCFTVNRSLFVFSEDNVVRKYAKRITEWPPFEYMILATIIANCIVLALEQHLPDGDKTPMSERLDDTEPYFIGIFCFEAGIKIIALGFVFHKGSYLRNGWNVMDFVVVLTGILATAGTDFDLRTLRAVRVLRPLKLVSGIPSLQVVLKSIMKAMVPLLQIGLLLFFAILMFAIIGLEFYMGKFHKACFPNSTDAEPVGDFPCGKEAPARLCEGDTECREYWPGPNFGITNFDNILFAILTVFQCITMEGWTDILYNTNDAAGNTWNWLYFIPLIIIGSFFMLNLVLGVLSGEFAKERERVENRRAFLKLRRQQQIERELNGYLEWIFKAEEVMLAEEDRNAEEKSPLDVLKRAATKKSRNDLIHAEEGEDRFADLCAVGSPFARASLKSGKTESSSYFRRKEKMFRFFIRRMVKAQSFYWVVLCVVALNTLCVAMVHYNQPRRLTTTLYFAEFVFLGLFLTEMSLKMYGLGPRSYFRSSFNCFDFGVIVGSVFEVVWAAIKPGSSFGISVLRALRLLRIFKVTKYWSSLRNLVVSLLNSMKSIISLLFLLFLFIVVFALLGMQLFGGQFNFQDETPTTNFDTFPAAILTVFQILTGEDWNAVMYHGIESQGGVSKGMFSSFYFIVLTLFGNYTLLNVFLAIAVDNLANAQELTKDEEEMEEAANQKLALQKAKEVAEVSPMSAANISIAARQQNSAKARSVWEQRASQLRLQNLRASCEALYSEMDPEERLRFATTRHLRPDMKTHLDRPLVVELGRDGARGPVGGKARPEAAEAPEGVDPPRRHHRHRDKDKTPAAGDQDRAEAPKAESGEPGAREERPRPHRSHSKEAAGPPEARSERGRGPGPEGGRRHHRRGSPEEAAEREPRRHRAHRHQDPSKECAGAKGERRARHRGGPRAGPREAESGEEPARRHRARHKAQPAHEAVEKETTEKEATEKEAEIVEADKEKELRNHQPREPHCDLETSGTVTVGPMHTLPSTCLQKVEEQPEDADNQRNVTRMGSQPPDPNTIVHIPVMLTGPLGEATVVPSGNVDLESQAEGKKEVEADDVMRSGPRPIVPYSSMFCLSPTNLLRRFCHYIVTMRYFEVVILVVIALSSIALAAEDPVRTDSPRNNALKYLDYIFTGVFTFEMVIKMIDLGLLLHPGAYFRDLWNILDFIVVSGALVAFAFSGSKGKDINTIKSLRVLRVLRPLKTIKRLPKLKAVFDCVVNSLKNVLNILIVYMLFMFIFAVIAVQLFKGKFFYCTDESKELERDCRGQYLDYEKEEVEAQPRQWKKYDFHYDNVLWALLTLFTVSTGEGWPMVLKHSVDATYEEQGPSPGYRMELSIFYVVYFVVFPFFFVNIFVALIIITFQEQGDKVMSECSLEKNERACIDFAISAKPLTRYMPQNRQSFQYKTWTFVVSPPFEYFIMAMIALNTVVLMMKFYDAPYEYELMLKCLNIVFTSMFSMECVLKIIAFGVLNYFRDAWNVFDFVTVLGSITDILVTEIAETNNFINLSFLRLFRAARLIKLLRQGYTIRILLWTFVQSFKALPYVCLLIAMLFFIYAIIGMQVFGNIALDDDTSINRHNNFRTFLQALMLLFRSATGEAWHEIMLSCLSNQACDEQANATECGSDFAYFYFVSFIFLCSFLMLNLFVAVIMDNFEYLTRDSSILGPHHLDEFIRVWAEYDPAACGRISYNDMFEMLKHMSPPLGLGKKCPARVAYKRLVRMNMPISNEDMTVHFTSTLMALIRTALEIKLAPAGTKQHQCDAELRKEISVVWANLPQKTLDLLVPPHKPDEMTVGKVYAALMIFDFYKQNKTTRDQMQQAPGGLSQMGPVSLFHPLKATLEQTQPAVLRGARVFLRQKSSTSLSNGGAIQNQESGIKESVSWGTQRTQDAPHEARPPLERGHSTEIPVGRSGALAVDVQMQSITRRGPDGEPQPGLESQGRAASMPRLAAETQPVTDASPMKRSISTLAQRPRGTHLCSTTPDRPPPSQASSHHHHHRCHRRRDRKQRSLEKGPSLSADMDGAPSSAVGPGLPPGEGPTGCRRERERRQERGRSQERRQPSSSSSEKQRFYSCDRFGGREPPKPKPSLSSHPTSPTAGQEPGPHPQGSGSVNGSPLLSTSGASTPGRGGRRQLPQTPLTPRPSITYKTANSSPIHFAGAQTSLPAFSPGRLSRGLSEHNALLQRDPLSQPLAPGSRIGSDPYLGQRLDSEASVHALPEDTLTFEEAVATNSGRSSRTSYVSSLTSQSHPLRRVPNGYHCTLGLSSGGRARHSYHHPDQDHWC
T5 sequence (Q02410 whole entry): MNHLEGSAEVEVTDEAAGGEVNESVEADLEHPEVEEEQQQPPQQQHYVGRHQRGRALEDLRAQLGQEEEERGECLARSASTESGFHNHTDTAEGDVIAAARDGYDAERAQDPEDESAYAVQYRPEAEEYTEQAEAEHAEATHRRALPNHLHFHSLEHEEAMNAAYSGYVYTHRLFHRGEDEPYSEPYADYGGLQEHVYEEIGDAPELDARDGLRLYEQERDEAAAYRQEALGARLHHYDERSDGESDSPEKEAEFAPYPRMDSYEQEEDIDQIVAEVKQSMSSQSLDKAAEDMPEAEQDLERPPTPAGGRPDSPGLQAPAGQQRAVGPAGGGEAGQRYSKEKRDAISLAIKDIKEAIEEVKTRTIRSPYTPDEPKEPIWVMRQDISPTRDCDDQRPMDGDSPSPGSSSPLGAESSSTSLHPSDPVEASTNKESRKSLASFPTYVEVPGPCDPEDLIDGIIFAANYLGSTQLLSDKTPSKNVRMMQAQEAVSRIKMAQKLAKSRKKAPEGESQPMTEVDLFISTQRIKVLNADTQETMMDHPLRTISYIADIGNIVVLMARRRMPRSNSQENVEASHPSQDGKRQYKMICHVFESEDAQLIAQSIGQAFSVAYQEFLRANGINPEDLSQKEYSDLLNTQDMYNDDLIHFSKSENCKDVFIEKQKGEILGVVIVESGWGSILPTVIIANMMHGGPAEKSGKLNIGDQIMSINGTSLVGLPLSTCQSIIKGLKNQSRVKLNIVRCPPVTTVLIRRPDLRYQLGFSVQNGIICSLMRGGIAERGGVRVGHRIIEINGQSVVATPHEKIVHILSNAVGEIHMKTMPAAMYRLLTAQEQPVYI

[40] = molecular target: Wee1-like protein kinase (Homo sapiens, UniProt P30291); experiment: Dose Response Cell-based Assay for Inhibitors of Wee1 Degradation. [Related pubchem assays: 1410, 1321 ]; type: functional
[41] = molecular target: T5, Voltage-gated N-type calcium channel alpha-1B subunit/Amyloid beta A4 precursor protein-binding family A member 1; type: protein assay; remark: listed apart in the source
[42] = tested on: BJ; experiment: cytotoxicity toward Ras-transformed BJeLR fibroblasts, dose response, cell-based, alamar blue fluorescence, cherrypicked samples (AID 2631); type: functional; conditions: Homo sapiens;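 note: confirmatory dose-response assay in RAS-dependent BJ fibroblasts engineered with TERT, LT and ST, with cytotoxicity read by fluorescence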
[43] = molecular target: Cytochrome P450 2D6 (Homo sapiens, UniProt P10635); experiment: qHTS Assay for Inhibitors and Substrates of Cytochrome P450 2D6. [Related pubchem assays: 410 ]; type: ADME; conditions: read-out: Potency
[44] = molecular target: Cytochrome P450 3A4 (Homo sapiens, UniProt P08684); conditions: Potency;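 note: confirmatory qHTS run detecting inhibitors and substrates of CYP3A4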
Cytochrome P450 3A4, sequence (P08684 whole entry): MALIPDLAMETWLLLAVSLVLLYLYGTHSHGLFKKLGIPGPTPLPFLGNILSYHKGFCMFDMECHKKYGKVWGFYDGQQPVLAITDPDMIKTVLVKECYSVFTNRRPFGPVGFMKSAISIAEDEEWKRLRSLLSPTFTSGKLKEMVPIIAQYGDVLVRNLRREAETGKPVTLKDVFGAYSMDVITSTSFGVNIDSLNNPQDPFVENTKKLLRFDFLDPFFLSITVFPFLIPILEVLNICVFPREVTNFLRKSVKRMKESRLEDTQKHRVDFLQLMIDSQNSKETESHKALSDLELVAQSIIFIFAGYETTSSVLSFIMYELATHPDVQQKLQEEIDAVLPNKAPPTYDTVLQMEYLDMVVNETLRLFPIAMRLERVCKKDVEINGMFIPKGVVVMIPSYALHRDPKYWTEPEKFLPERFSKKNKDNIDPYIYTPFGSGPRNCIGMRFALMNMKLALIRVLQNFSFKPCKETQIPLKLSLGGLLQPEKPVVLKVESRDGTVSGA

T1 sequence (P0DMV8 whole entry): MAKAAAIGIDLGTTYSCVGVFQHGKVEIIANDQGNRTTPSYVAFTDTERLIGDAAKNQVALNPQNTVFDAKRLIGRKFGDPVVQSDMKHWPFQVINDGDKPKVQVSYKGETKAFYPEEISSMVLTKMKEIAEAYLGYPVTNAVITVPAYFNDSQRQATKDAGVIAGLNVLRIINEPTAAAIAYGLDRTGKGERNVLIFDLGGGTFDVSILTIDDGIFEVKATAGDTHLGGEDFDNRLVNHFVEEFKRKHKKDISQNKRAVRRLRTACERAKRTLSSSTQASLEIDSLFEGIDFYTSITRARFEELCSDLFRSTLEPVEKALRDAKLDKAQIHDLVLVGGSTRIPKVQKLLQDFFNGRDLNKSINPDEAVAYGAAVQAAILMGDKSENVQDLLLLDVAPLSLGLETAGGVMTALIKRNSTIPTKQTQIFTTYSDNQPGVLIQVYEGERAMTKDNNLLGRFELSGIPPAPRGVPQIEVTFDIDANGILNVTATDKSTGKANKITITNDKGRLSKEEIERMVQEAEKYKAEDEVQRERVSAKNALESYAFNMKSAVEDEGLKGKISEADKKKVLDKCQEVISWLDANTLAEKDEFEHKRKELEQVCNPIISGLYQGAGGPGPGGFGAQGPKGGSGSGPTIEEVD

CCCc1cc(SCC(=O)Nc2c(C)n(C)n(-c3ccccc3)c2=O)n2c(nc3ccccc32)c1C#N
IC50 [1]: > 100 µM (not active)
AC50 [2]: > 195 µM (inactive)
IC50 [3]: > 100 µM (not active)

O=C(O)c1cc(-c2ccc(Cl)cc2)n(-c2cccc(Cl)c2)n1
IC50 [4]: > 67 µM (not active)
IC50 [5]: 8.1 µM (active)

C=CCN1C(=O)/C(=C\c2cccn2-c2cccc([N+](=O)[O-])c2)C(=O)NC1=S
EC50 [6]: 5.36 µM (active)

CCOc1ccc(-n2cc(C(=O)Nc3cccc(Cl)c3)c3cc(OC)c(OC)cc3c2=O)cc1
IC50 [7]: > 35 µM (not active)
EC50 [8]: > 120 µM (not active)
EC50 [9]: 3.7 µM (active)
IC50 [10]: > 35 µM (not active)
EC50 [11]: > 120 µM (not active)
EC50 [12]: > 60 µM (not active)
EC50 [13]: 21.5 µM (active)

CC(=O)c1sc2c(c1OC(=O)c1ccc(Cl)cc1Cl)c(=O)n(-c1ccccc1)c(=S)n2-c1ccccc1
EC50 [8]: < 0.1 µM (active)
EC50 [14]: 6.47 µM (inconclusive)
EC50 [15]: 0.444 µM (active)
EC50 [11]: < 0.1 µM (active)
CC50 [16]: 1.59 µM (active)
EC50 [17]: 0.578 µM (active)
EC50 [18]: 0.201 µM (active)
EC50 [19]: 0.36 µM (inconclusive)
EC50 [20]: 0.716 µM (active)
EC50 [13]: 0.134 µM (active)
IC50 [21]: > 80 µM (inactive)
EC50 [22]: 104 µM (active)

O=c1/c(=C/c2ccccn2)sc2nc3ccccc3n12
EC50 [23]: < 0.2 µM (active)
EC50 [24]: > 50 µM (not active)

C/C1=C\[C@@H](C)C/C=C/[C@H]2[C@@H]3O[C@]3(C)[C@@H](C)[C@H]3[C@H](Cc4c[nH]c5ccccc45)NC(=O)[C@]32C(=O)/C=C/C(=O)[C@@H]1O
AC50 [25]: 6.44 µM (active)
EC50 [26]: 12 µM (not active)
EC50 [27]: > 35.4 µM (not active)
EC50 [14]: 10.7 µM (inconclusive)
IC50 [28]: 10.6 µM (not active)
EC50 [29]: > 59.6 µM (inactive)
EC50 [30]: 6.24 µM (inconclusive)
EC50 [31]: > 59.6 µM (inactive)
EC50 [32]: > 35.4 µM (not active)
AC50 [33]: 24.2 µM (active)
AC50 [34]: 5.25 µM (active)
EC50 [18]: 3.85 µM (inconclusive)
EC50 [19]: 5.67 µM (active)
EC50 [35]: > 35.4 µM (not active)
IC50 [36]: 4.76 µM (active)
EC50 [22]: 6.74 µM (inconclusive)

Cc1nc2ccccn2c1-c1csc(Nc2cccc(O)c2)n1
IC50 [37]: > 13.3 µM (not active)
EC50 [14]: 1.55 µM (inconclusive)
EC50 [38]: > 49.7 µM (not active)
IC50 [39]: 10 µM (active)
EC50 [40]: > 49.7 µM (not active)
EC50 [18]: 7.42 µM (active)
EC50 [19]: 1.96 µM (active)
IC50 [41]: > 50 µM (inactive)
EC50 [42]: 0.205 µM (active)
EC50 [22]: 82.4 µM (inconclusive)

Cc1cccc(C#Cc2ccccc2)n1
AC50 [43]: 39.8 µM (inconclusive)
AC50 [44]: 20 µM (inconclusive) and 1.26 µM (inconclusive)
